Measured values as given in EP0417790B1, “S-triazolo[3,4-i]purine derivatives” (Kyowa Hakko Kogyo Co., Ltd., priority 1989, dated 1991).
Like-named read-outs stand apart in the source and are kept apart here.

Columns and labels:
[1] = tested on: Wistar male rats; assay: Diuretic activity; assay type: in vivo; conditions: Rattus norvegicus, po, 25 mg/kg orally, urine taken for 6 hours
Description: Wistar male rats weighing 150 to 300 g were used after fasting for 18 hours. […] The test was performed using 3 groups per test compound, and each group consists of 3 animals. The urine was metered by a measuring cylinder and electrolytes (Na^+ and K^+) in the urine were analyzed by flame photometer (model […]: Hitachi Ltd.). Parameters in Table 3 are represented by relative value for control.

[2] = tested on: trachea; assay: Passive Schultz-Dale reaction (broncho-dilatory effect) on isolated tracheal strips; conditions: Cavia porcellus; 50% relaxation of antigen (EWA, 1 µg/ml)-contracted tracheal strips of passively sensitized guinea pigs
Description: Guinea pigs were passively sensitized as follows. Hartley male guinea pigs weighing 350 to 500 g were injected intraperitoneally with rabbit anti-egg albumin (EWA) serum prepared by the method of Koda et al. [Folia pharmacol., Japon 66, 237, (1970)]. After 24 hours, the guinea pigs were stunned and exsanguinated, and then trachea was excised. The zig-zag strips of the trachea were prepared by the method of Emmerson and Mackay [J. Pharm. Pharmacol., 31, 798, (1979)]. The strips were suspended in Krebs-Henseleit solution at 37°C under aeration of a mixed gas of 95% oxygen and 5% carbon dioxide, and incubated for one hour. Antigen (EWA) was then introduced in the solution (final concentration; 1 µg/ml), and the contraction was measured by isotonictransducer (TD-112s, made by Nihon Kohden K.K., Japan) and recorded on a recorder (Type 3066, made by Yokogawa-Hokushin Denki, K.K. Japan). After the contraction curves reached plateau the compounds were successively added in order to get cumulative concentration-relaxation curves. Concentration of 50% relaxation rate (IC50) was calculated from the regression line, which was obtained from cumulative concentration-relaxation curves.

[3] = tested on: male dd-mice; assay: Acute toxicity; assay type: in vivo; conditions: Minimum lethal dose, oral, mortality observed for seven days
Description: The compounds were orally administrated to male dd-mice weighing 20 ± 1 g. Minimum lethal dose (MLD) was determined by observing the mortality for seven days after the administration.

[4] = relative value for control (1.00), read-out: Na^+/K^+
[5] = relative value for control (100), read-out: Excretion of K^+
[6] = relative value for control (100), read-out: Excretion of Na^+
[7] = relative value for control (100), read-out: Urine volume

Row | Compound | response vs control in vivo at 25 mg/kg [1, 4] [%] | response vs control in vivo at 25 mg/kg [1, 5] [%] | response vs control in vivo at 25 mg/kg [1, 6] [%] | response vs control in vivo at 25 mg/kg [1, 7] [%] | IC50 [2] [µM] | MLD [3] [mg/kg]
1 | CCCn1c(=O)n2c(-c3ccccc3)nnc2c2c1ncn2C [Compound 1, 6,9-Dihydro-9-methyl-3-phenyl-6-n-propyl-5H-1,2,4-triazolo-[3,4-i]purin-5-one] | 318 | 87 | 226 | 255 | 4.1 | 100
2 | CCCn1c(=O)n2c(-c3cccs3)nnc2c2c1ncn2C [Compound 2, 6,9-Dihydro-9-methyl-6-n-propyl-3-(2-thienyl)-5H-1,2,4-triazolo[3,4-i]purin-5-one] | – | – | – | – | 0.4 | 300
3 | CCCn1c(=O)n2c(-c3ccccc3OC)nnc2c2c1ncn2C [Compound 7, 6,9-Dihydro-3-(2-methoxyphenyl)-9-methyl-6-n-propyl-5H-1,2,4-triazolo[3,4-i]purin-5-one] | 133 | 122 | 162 | 173 | – | 300
4 | CCCn1c(=O)n2c(-c3ccccc3N)nnc2c2c1ncn2C [Compound 13, 3-(2-Aminophenyl)-6,9-dihydro-9-methyl-6-n-propyl-5H-1,2,4-triazolo[3,4-i]purin-5-one] | – | – | – | – | – | >300
5 | CCCn1c(=O)n2c(-c3ccc(C)cc3)nnc2c2c1ncn2C [Compound 14, 6,9-Dihydro-9-methyl-3-(4-methylphenyl)-6-n-propyl-5H-1,2,4-triazolo[3,4-i]purin-5-one] | – | – | – | – | 45 | >300
6 | CCCn1c(=O)n2c(-c3ccc(C(F)(F)F)cc3)nnc2c2c1ncn2C [Compound 15, 6,9-Dihydro-9-methyl-6-n-propyl-3-(4-trifluoromethylphenyl)-5H-1,2,4-triazolo[3,4-i]purin-5-one] | – | – | – | – | – | >300
7 | CCCn1c(=O)n2c(-c3ccc([N+](=O)[O-])cc3)nnc2c2c1ncn2C [Compound 16, 6,9-Dihydro-9-methyl-3-(4-nitrophenyl)-6-n-propyl-5H-1,2,4-triazolo[3,4-i]purin-5-one] | 111 | 175 | 194 | 170 | – | >300
8 | CCCn1c(=O)n2c(-c3ccc(F)cc3)nnc2c2c1ncn2C [Compound 17, 6,9-Dihydro-3-(4-fluorophenyl)-9-methyl-6-n-propyl-5H-1,2,4-triazolo[3,4-i]purin-5-one] | 142 | 134 | 179 | 178 | – | >300
9 | CCCn1c(=O)n2c(-c3ccc(N(C)C)cc3)nnc2c2c1ncn2C [Compound 18, 6,9-Dihydro-3-(4-dimethylaminophenyl)-9-methyl-6-n-propyl-5H-1,2,4-triazolo[3,4-i]purin-5-one] | 109 | 129 | 141 | 155 | – | >300
10 | CCCn1c(=O)n2c(-c3cc(Cl)ccc3Cl)nnc2c2c1ncn2C [Compound 19, 3-(2,5-Dichlorophenyl)-6,9-dihydro-9-methyl-6-n-propyl-5H-1,2,4-triazolo[3,4-i]purin-5-one] | – | – | – | – | – | >300
11 | CCCn1c(=O)n2c(-c3ccc(Cl)c(Cl)c3)nnc2c2c1ncn2C [Compound 20, 3-(3,4-Dichlorophenyl)-6,9-dihydro-9-methyl-6-n-propyl-5H-1,2,4-triazolo[3,4-i]purin-5-one] | – | – | – | – | – | >300
12 | CCCn1c(=O)n2c(-c3ccc(OC)c(OC)c3)nnc2c2c1ncn2C [Compound 21, 6,9-Dihydro-3-(3,4-dimethoxyphenyl)-9-methyl-6-n-propyl-5H-1,2,4-triazolo[3,4-i]purin-5-one] | – | – | – | – | – | >300
13 | CCCn1c(=O)n2c(-c3ccc(C(=O)OC)cc3)nnc2c2c1ncn2C [Compound 22, 6,9-Dihydro-3-(4-methoxycarbonylphenyl)-9-methyl-6-n-propyl-5H-1,2,4-triazolo[3,4-i]purin-5-one] | – | – | – | – | – | >300
14 | CCCn1c(=O)n2c(-c3ccc(C(=O)O)cc3)nnc2c2c1ncn2C [Compound 23, 6,9-Dihydro-3-(4-carboxyphenyl)-9-methyl-6-n-propyl-5H-1,2,4-triazolo[3,4-i]purin-5-one] | – | – | – | – | – | >300
15 | CCCn1c(=O)n2c(-c3ccccc3)nnc2c2[nH]c(C3CCCC3)nc21 [Compound 26, 8-Cyclopentyl-6,9-dihydro-6-n-propyl-3-phenyl-5H-1,2,4-triazolo[3,4-i]purin-5-one] | – | – | – | – | – | >300
16 | CCCn1c(=O)n2c(C)nnc2c2[nH]c(C3CCCC3)nc21 [Compound 27, 8-Cyclopentyl-6,9-dihydro-3-methyl-6-n-propyl-5H-1,2,4-triazolo[3,4-i]purin-5-one] | – | – | – | – | – | >300
17 | Cn1cnc2c1c1nnc(-c3ccccc3)n1c(=O)n2Cc1ccccc1 [Compound 28, 6-Benzyl-6,9-dihydro-9-methyl-3-phenyl-5H-1,2,4-triazolo-[3,4-i]purin-5-one] | – | – | – | – | – | >300
18 | Cn1cnc2c1c1nnc(-c3ccccc3)n1c(=O)n2-c1ccccc1 [Compound 29, 6,9-Dihydro-3,6-diphenyl-9-methyl-5H-1,2,4-triazolo[3,4-i]-purin-5-one] | 141 | 110 | 155 | 170 | – | >300
19 | CCCn1c(=O)n2c(-c3cccnc3)nnc2c2[nH]cnc21 [Compound 32, 6,9-Dihydro-6-n-propyl-3-(3-pyridyl)-5H-1,2,4-triazolo[3,4-i]purin-5-one] | 152 | 129 | 196 | 195 | – | –
20 | CCCn1c(=O)n2c(-c3cccs3)nnc2c2[nH]cnc21 [Compound 33, 6,9-Dihydro-6-n-propyl-3-(2-thienyl)-5H-1,2,4-triazolo[3,4-i]purin-5-one] | – | – | – | – | – | >300
21 | CCCn1c(=O)n2cnnc2c2c1ncn2C [Compound 36, 6,9-Dihydro-9-methyl-6-n-propyl-5H-1,2,4-triazolo[3,4-i]purin-5-one] | – | – | – | – | – | 300
22 | Cc1nnc2c3[nH]cnc3n(Cc3ccccc3)c(=O)n12 [Compound 37, 6-Benzyl-6,9-dihydro-3-methyl-5H-1,2,4-triazolo[3,4-i]purin-5-one] | – | – | – | – | – | >300
23 | CCCn1c(=O)n2c(-c3ccncc3)nnc2c2c1ncn2Cc1ccccc1 [Compound 39, 9-Benzyl-6,9-dihydro-6-n-propyl-3-(4-pyridyl)-5H-1,2,4-triazolo[3,4-i]purin-5-one] | 127 | 145 | 184 | 185 | – | >300
24 | CCCn1cnc2c1c1nnc(-c3ccncc3)n1c(=O)n2CCC [Compound 40Sa] | 97 | 136 | 132 | 155 | – | 100
25 | Cn1cnc2c1c1n[nH]c(=O)n1c(=O)n2Cc1ccccc1 [Compound 42, 6-Benzyl-9-methyl-2,5,6,9-tetrahydro-3H-1,2,4-triazolo[3,4-i]purin-3,5-dione] | – | – | – | – | – | >300
26 | CCCn1c(=O)n2c(=O)[nH]nc2c2[nH]c(C3CCCC3)nc21 [Compound 43, 8-Cyclopentyl-6-n-propyl-2,5,6,9-tetrahydro-3H-1,2,4-triazolo[3,4-i]purin-3,5-dione] | – | – | – | – | – | >300
27 | CCCn1c(=O)n2c(=S)[nH]nc2c2c1ncn2C [Compound 46, 9-Methyl-6-n-propyl-2,2,6,9-tetrahydro-3-thioxo-5H-1,2,4-triazolo[3,4-i]purin-5-one] | – | – | – | – | – | >300
28 | CCCn1c(=O)n2c(=O)n(CC)nc2c2c1ncn2C [Compound 48, 2-Ethyl-9-methyl-6-n-propyl-2,5,6,9-tetrahydro-3H-1,2,4-triazolo[3,4-i]purin-2,5-dione] | – | – | – | – | – | >300
29 | CCn1nc2c3c(ncn3C)n(Cc3ccccc3)c(=O)n2c1=O [Compound 49, 6-Benzyl-2-ethyl-9-methyl-2,5,6,9-tetrahydro-3H-1,2,4-triazolo[3,4-i]purin-2,5-dione] | 161 | 173 | 279 | 300 | – | –
30 | NS(=O)(=O)c1cc(C(=O)O)c(NCc2ccco2)cc1Cl [Furosemide, reference compound] | 105 | – | – | – | – | –
